This is an account of results in PubChem BioAssay (NCI).

Some test systems named below: 786-0 renal; A549 NSCLC; HCC-2998 colon; K-562 leukemia; SF-268 CNS; SK-MEL-2 melanoma; SK-MEL-5 melanoma; T-47D breast; U251 CNS; UACC-62 melanoma.
What all share (assay): NCI anticancer screen, dose series, 48 h

Several values for one entry are separate records, joined by “and”; a condition that tells them apart may be missing. Equal values may be shown once.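 Cultured in 96-well plates, cells were exposed to test compound for 48 hours across five concentrations. Abbreviation: GI50, concentration required for 50% inhibition of growth. TGI denotes the concentration required for complete inhibition of growth.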

For `Nc1ccccc1C#C/C=C\C#Cc1ccccc1C#CCO`, the GI50 in the assay on 786-0 renal is 6.39 µM; with A549 NSCLC, 11.2 µM; in the assay with HCC-2998 colon, 2.95 µM; in the assay on K-562 leukemia, 11.1 µM; in the assay with SF-268 CNS, 7.6 µM; with SK-MEL-2 melanoma it was 8.35 µM. In addition, the GI50 with SK-MEL-5 melanoma is 6.1 µM; with T-47D breast, 16.9 µM; in the assay with U251 CNS, 7.41 µM; in the assay with UACC-62 melanoma, 5.69 µM. The TGI in the assay with 786-0 renal is 17.8 µM; with A549 NSCLC, above 50 µM; in the assay with HCC-2998 colon, 10.6 µM; in the assay on K-562 leukemia, above 50 µM; in the assay with SF-268 CNS it was 24.3 µM; with SK-MEL-2 melanoma, 24.2 µM. Moreover, the TGI in the assay on SK-MEL-5 melanoma was 14.1 µM; in the assay on T-47D breast, above 50 µM; with U251 CNS it was 18.7 µM; with UACC-62 melanoma, 15.3 µM.

Take `CN1CCC2(CC1)N=C(SCC(=O)Nc1cnc3ccccc3c1)C(c1ccc(Br)cc1)=N2`: the GI50 in the assay with 786-0 renal was 1.5 µM; with A549 NSCLC, 5.01 µM; in the assay with HCC-2998 colon, 1.85 µM; with K-562 leukemia, 1.89 µM; in the assay on SF-268 CNS, 3.46 µM; in the assay with SK-MEL-2 melanoma, 1.93 µM. The GI50 is 1.68 µM in the assay with SK-MEL-5 melanoma, 2.24 µM in the assay on T-47D breast, 1.83 µM in the assay on U251 CNS and 1.71 µM in the assay with UACC-62 melanoma. Also, the TGI in the assay on 786-0 renal is 2.85 µM; with A549 NSCLC it was 17.4 µM; with HCC-2998 colon, 3.42 µM; in the assay with K-562 leukemia it was 5.05 µM; in the assay with SF-268 CNS, 14.7 µM; in the assay with SK-MEL-2 melanoma it was 3.88 µM. Moreover, the TGI in the assay with SK-MEL-5 melanoma amounted to 3.07 µM; in the assay on T-47D breast, 7.35 µM; in the assay on U251 CNS it was 3.65 µM; in the assay with UACC-62 melanoma, 3.21 µM.

Regarding `CN1CCN(CCCNC(=O)c2c3c(n4ccccc24)C(=O)c2ncccc2C3=O)CC1`, the GI50 is 1.63 µM with 786-0 renal; 1.26 µM in the assay with A549 NSCLC; 1.04 µM in the assay with HCC-2998 colon; 1.39 µM with K-562 leukemia; 1.28 µM with SF-268 CNS; 2.67 µM in the assay on SK-MEL-2 melanoma. Also, the GI50 is 0.547 µM with SK-MEL-5 melanoma, 1.88 µM with T-47D breast, 1.48 µM in the assay on U251 CNS and 0.764 µM in the assay on UACC-62 melanoma. In addition, the TGI in the assay on 786-0 renal was 22.3 µM; in the assay with A549 NSCLC, 5.48 µM; in the assay on HCC-2998 colon, 4.07 µM; in the assay with K-562 leukemia, above 32.4 µM; in the assay on SF-268 CNS, 24.4 µM; in the assay on SK-MEL-2 melanoma, 11.4 µM. Also, the TGI in the assay on SK-MEL-5 melanoma is 1.54 µM; with T-47D breast it was 5.28 µM; in the assay with U251 CNS it was 6.54 µM; with UACC-62 melanoma, 3 µM.

As to `Cc1ccc(/C=N/NC(=O)c2ccccc2Oc2ccccc2)o1`, the GI50 with 786-0 renal is above 100 µM; in the assay with A549 NSCLC, 43.5 µM; with HCC-2998 colon it was 65.3 µM; with K-562 leukemia, 33.8 µM; in the assay on SF-268 CNS, 42.9 µM; with SK-MEL-2 melanoma, 25.5 µM. Besides, the GI50 with SK-MEL-5 melanoma is 16.4 µM; in the assay with T-47D breast, 34.9 µM; in the assay with U251 CNS, 52.2 µM; with UACC-62 melanoma, 17.3 µM. In addition, the TGI in the assay on 786-0 renal was above 100 µM; in the assay on A549 NSCLC, above 100 µM; with HCC-2998 colon it was above 100 µM; in the assay with K-562 leukemia it was above 100 µM; in the assay with SF-268 CNS it was above 100 µM; in the assay on SK-MEL-2 melanoma it was above 90.9 µM. The TGI in the assay on SK-MEL-5 melanoma is 33.3 µM; in the assay with T-47D breast it was above 100 µM; in the assay on U251 CNS it was above 100 µM; with UACC-62 melanoma it was above 81.2 µM.

As for `O=C(O)CCC(c1ccccc1)(c1ccccc1)c1ccccc1`, the TGI was above 100 µM with 786-0 renal; above 100 µM in the assay on A549 NSCLC; above 100 µM with HCC-2998 colon; above 100 µM with K-562 leukemia; above 92.9 µM with SF-268 CNS; above 84 µM with SK-MEL-2 melanoma. The TGI was above 100 µM with SK-MEL-5 melanoma, above 60.3 µM in the assay on T-47D breast, above 100 µM in the assay with U251 CNS and above 100 µM in the assay with UACC-62 melanoma.

`COc1cccc2c1C(=O)c1c(O)c3c(c(O)c1C2=O)C[C@@](O)(C(=O)CO)CC3OC1CC(N)C(OC2CCCCO2)C(C)O1` (stereo partly drawn): the GI50 with 786-0 renal was 0.0131 µM; with A549 NSCLC it was 0.00469 µM; in the assay with HCC-2998 colon, 0.0457 µM; with K-562 leukemia, 0.0247 µM; in the assay on SF-268 CNS, 0.00705 µM; in the assay with SK-MEL-5 melanoma it was 0.0291 µM. Moreover, the GI50 with U251 CNS was 0.00812 µM; in the assay with UACC-62 melanoma, 0.0205 µM. For the same molecule, the TGI is 1.15 µM in the assay on A549 NSCLC; 6.58 µM in the assay with K-562 leukemia; 4.1 µM with SK-MEL-2 melanoma; 0.179 µM and 1.08 µM with SK-MEL-5 melanoma; 0.925 µM in the assay on T-47D breast.

Regarding `N#C/C(=C\c1cc(O)c(O)c(O)c1)C(N)=O`, the TGI with 786-0 renal, in the assay on A549 NSCLC, in the assay on HCC-2998 colon, in the assay with K-562 leukemia, in the assay on SF-268 CNS and in the assay on SK-MEL-2 melanoma was above 100 µM each time. In addition, the TGI in the assay with SK-MEL-5 melanoma, with T-47D breast, with U251 CNS and in the assay with UACC-62 melanoma was above 100 µM throughout.
